# Laboratory results reported in US10004701B2, “Methods and compositions for treating infection” (UNIVERSITY OF ROCHESTER, priority 2012, dated 2018).
# Structures can show the parent of a compound that is named as a salt. Where two headings read alike, the source gives them in different places.
# What was measured:
# Assay in all cases: AK assay 384-well format, Prestwick library screening
# E. faecium = type: cell-based, Enterococcus faecium; conditions: for fold induction at 50 µM: Enterococcus faecium, 3 h
# [1] = system: S. aureus strain USA300-0114; type: cell-based, Staphylococcus aureus; conditions: for fold induction at 50 µM: Staphylococcus aureus, USA300, 3 h
# K. pneumoniae = type: cell-based, Klebsiella pneumoniae; conditions: for fold induction at 50 µM: Klebsiella pneumoniae, 3 h
# [2] = system: A. baumannii strain 98-37-09; type: cell-based, Acinetobacter baumannii; conditions: for fold induction at 50 µM: Acinetobacter baumannii, 983709, 3 h
# P. aeruginosa = type: cell-based, Pseudomonas aeruginosa; conditions: for fold induction at 50 µM: Pseudomonas aeruginosa, 3 h
# E. cloacae = type: cell-based, Enterobacter cloacae; conditions: for fold induction at 50 µM: Enterobacter cloacae, 3 h
# E. coli = type: cell-based, Escherichia coli; conditions: for fold induction at 50 µM: Escherichia coli, 3 h
# [3] = planktonic E. faecium, 50 μM final drug concentration, cutoff for positive-scoring molecules 3-fold increase, read-out: AK-based Prestwick Library Screening Results, E. faecium (increase in extracellular AK activity)
# [4] = planktonic S. aureus, 50 μM final drug concentration, cutoff for positive-scoring molecules 3-fold increase, read-out: AK-based Prestwick Library Screening Results, S. aureus (increase in extracellular AK activity)
# [5] = planktonic K. pneumoniae, 50 μM final drug concentration, cutoff for positive-scoring molecules 3-fold increase, read-out: AK-based Prestwick Library Screening Results, K. pneumoniae (increase in extracellular AK activity)
# [6] = planktonic A. baumannii, 50 μM final drug concentration, cutoff for positive-scoring molecules 3-fold increase, read-out: AK-based Prestwick Library Screening Results, A. baumannii (increase in extracellular AK activity)
# [7] = planktonic P. aeruginosa, 50 μM final drug concentration, cutoff for positive-scoring molecules 3-fold increase, read-out: AK-based Prestwick Library Screening Results, P. aeruginosa (increase in extracellular AK activity)
# [8] = planktonic E. cloacae, 50 μM final drug concentration, cutoff for positive-scoring molecules 3-fold increase, read-out: AK-based Prestwick Library Screening Results, E. cloacae (increase in extracellular AK activity)
# [9] = planktonic E. coli, 50 μM final drug concentration, cutoff for positive-scoring molecules 3-fold increase, read-out: AK-based Prestwick Library Screening Results, E. coli (increase in extracellular AK activity)
# [10] = 50 μM final drug concentration, 384-well format, cutoff for positive-scoring molecules 3-fold increase, read-out: AK-based Prestwick Library Screening Results, E. faecium (increase in extracellular AK activity)
# [11] = 50 μM final drug concentration, 384-well format, cutoff for positive-scoring molecules 3-fold increase, read-out: AK-based Prestwick Library Screening Results, S. aureus (increase in extracellular AK activity)
# [12] = 50 μM final drug concentration, 384-well format, cutoff for positive-scoring molecules 3-fold increase, read-out: AK-based Prestwick Library Screening Results, K. pneumoniae (increase in extracellular AK activity)
# [13] = 50 μM final drug concentration, 384-well format, cutoff for positive-scoring molecules 3-fold increase, read-out: AK-based Prestwick Library Screening Results, A. baumannii (increase in extracellular AK activity)
# [14] = 50 μM final drug concentration, 384-well format, cutoff for positive-scoring molecules 3-fold increase, read-out: AK-based Prestwick Library Screening Results, P. aeruginosa (increase in extracellular AK activity)
# [15] = 50 μM final drug concentration, 384-well format, cutoff for positive-scoring molecules 3-fold increase, read-out: AK-based Prestwick Library Screening Results, E. cloacae (increase in extracellular AK activity)
# [16] = 50 μM final drug concentration, 384-well format, cutoff for positive-scoring molecules 3-fold increase, read-out: AK-based Prestwick Library Screening Results, E. coli (increase in extracellular AK activity)
# [17] = 50 μM final drug concentration, 384-well format, cutoff for positive-scoring molecules 3-fold increase
# [18] = 50 μM final drug concentration, cutoff for positive-scoring molecules 3-fold increase, read-out: AK-based Prestwick Library Screening Results, E. faecium (fold increase in extracellular AK activity)
# [19] = 50 μM final drug concentration, cutoff for positive-scoring molecules 3-fold increase, read-out: AK-based Prestwick Library Screening Results, S. aureus (fold increase in extracellular AK activity)
# [20] = 50 μM final drug concentration, cutoff for positive-scoring molecules 3-fold increase, read-out: AK-based Prestwick Library Screening Results, K. pneumoniae (fold increase in extracellular AK activity)
# [21] = 50 μM final drug concentration, cutoff for positive-scoring molecules 3-fold increase, read-out: AK-based Prestwick Library Screening Results, A. baumannii (fold increase in extracellular AK activity)
# [22] = 50 μM final drug concentration, cutoff for positive-scoring molecules 3-fold increase, read-out: AK-based Prestwick Library Screening Results, P. aeruginosa (fold increase in extracellular AK activity)
# [23] = 50 μM final drug concentration, cutoff for positive-scoring molecules 3-fold increase, read-out: AK-based Prestwick Library Screening Results, E. cloacae (fold increase in extracellular AK activity)
# [24] = 50 μM final drug concentration, cutoff for positive-scoring molecules 3-fold increase, read-out: AK-based Prestwick Library Screening Results, E. coli (fold increase in extracellular AK activity)
# [25] = planktonic E. faecium, 50 μM final drug concentration, 384-well, cutoff for positive-scoring molecules 3-fold increase, read-out: AK-based Prestwick Library Screening Results: E. faecium (increase in extracellular AK activity)
# [26] = planktonic S. aureus, 50 μM final drug concentration, 384-well, cutoff for positive-scoring molecules 3-fold increase, read-out: AK-based Prestwick Library Screening Results: S. aureus (increase in extracellular AK activity)
# [27] = planktonic K. pneumoniae, 50 μM final drug concentration, 384-well, cutoff for positive-scoring molecules 3-fold increase, read-out: AK-based Prestwick Library Screening Results: K. pneumoniae (increase in extracellular AK activity)
# [28] = planktonic A. baumannii, 50 μM final drug concentration, 384-well, cutoff for positive-scoring molecules 3-fold increase, read-out: AK-based Prestwick Library Screening Results: A. baumannii (increase in extracellular AK activity)
# [29] = planktonic P. aeruginosa, 50 μM final drug concentration, 384-well, cutoff for positive-scoring molecules 3-fold increase, read-out: AK-based Prestwick Library Screening Results: P. aeruginosa (increase in extracellular AK activity)
# [30] = planktonic E. cloacae, 50 μM final drug concentration, 384-well, cutoff for positive-scoring molecules 3-fold increase, read-out: AK-based Prestwick Library Screening Results: E. cloacae (increase in extracellular AK activity)
# [31] = planktonic E. coli, 50 μM final drug concentration, 384-well, cutoff for positive-scoring molecules 3-fold increase, read-out: AK-based Prestwick Library Screening Results: E. coli (increase in extracellular AK activity)
structure (smiles),measurement,setting,value
CC(NCCc1ccc(O)cc1)C(O)c1ccc(O)cc1 (centres unmarked) [Ritodrine hydrochloride],fold induction at 50 µM,E. faecium; [3],0.9
same,fold induction at 50 µM,[1]; [4],0.5
same,fold induction at 50 µM,K. pneumoniae; [5],0.7
same,fold induction at 50 µM,[2]; [6],0.8
same,fold induction at 50 µM,P. aeruginosa; [7],0.9
same,fold induction at 50 µM,E. cloacae; [8],0.9
same,fold induction at 50 µM,E. coli; [9],0.8
C[C@@H]1CCC[C@H](C)N1NC(=O)c1ccc(Cl)c(S(N)(=O)=O)c1 [Clopamide],fold induction at 50 µM,E. faecium; [3],0.9
same,fold induction at 50 µM,[1]; [4],0.7
same,fold induction at 50 µM,K. pneumoniae; [5],0.7
same,fold induction at 50 µM,[2]; [6],0.8
same,fold induction at 50 µM,P. aeruginosa; [7],0.8
same,fold induction at 50 µM,E. cloacae; [8],1
same,fold induction at 50 µM,E. coli; [9],0.8
CC1(C)S[C@@H]2[C@H](NC(=O)[C@H](N)c3ccccc3)C(=O)N2[C@H]1C(=O)OC1OC(=O)c2ccccc21 (some centres unmarked) [Talampicillin hydrochloride],fold induction at 50 µM,"E. faecium; planktonic E. faecium, 50 μM final drug concentration, […], read-out: AK-based Prestwick library screening result, E. faecium (fold increase in extracellular AK activity)",1.4
same,fold induction at 50 µM,"[1]; planktonic S. aureus, 50 μM final drug concentration, […], read-out: AK-based Prestwick library screening result, S. aureus (fold increase in extracellular AK activity)",1.2
same,fold induction at 50 µM,"K. pneumoniae; planktonic K. pneumoniae, 50 μM final drug concentration, […], read-out: AK-based Prestwick library screening result, K. pneumoniae (fold increase in extracellular AK activity)",0.8
same,fold induction at 50 µM,"[2]; planktonic A. baumannii, 50 μM final drug concentration, […], read-out: AK-based Prestwick library screening result, A. baumannii (fold increase in extracellular AK activity)",0.8
same,fold induction at 50 µM,"P. aeruginosa; planktonic P. aeruginosa, 50 μM final drug concentration, […], read-out: AK-based Prestwick library screening result, P. aeruginosa (fold increase in extracellular AK activity)",1.1
same,fold induction at 50 µM,"E. cloacae; planktonic E. cloacae, 50 μM final drug concentration, […], read-out: AK-based Prestwick library screening result, E. cloacae (fold increase in extracellular AK activity)",1.6
same,fold induction at 50 µM,"E. coli; planktonic E. coli, 50 μM final drug concentration, […], read-out: AK-based Prestwick library screening result, E. coli (fold increase in extracellular AK activity)",15.2
O=C(CCCN1CCC(O)(c2ccc(Cl)cc2)CC1)c1ccc(F)cc1 [Haloperidol],fold induction at 50 µM,E. faecium; [10],0.9
same,fold induction at 50 µM,[1]; [11],0.8
same,fold induction at 50 µM,K. pneumoniae; [12],0.6
same,fold induction at 50 µM,[2]; [13],1
same,fold induction at 50 µM,P. aeruginosa; [14],0.9
same,fold induction at 50 µM,E. cloacae; [15],1.1
same,fold induction at 50 µM,E. coli; [16],0.9
"CC[C@@]1(O)C(=O)OCc2c1cc1n(c2=O)Cc2cc3ccccc3nc2-1 [Camptothecine (S,+)]","AK-based Prestwick Library Screening Results, E. faecium (increase in extracellular AK activity)",E. faecium; [17],0.9
same,"AK-based Prestwick Library Screening Results, S. aureus (increase in extracellular AK activity)",[1]; [17],0.7
same,"AK-based Prestwick Library Screening Results, K. pneumoniae (increase in extracellular AK activity)",K. pneumoniae; [17],0.8
same,"AK-based Prestwick Library Screening Results, A. baumannii (increase in extracellular AK activity)",[2]; [17],0.8
same,"AK-based Prestwick Library Screening Results, P. aeruginosa (increase in extracellular AK activity)",P. aeruginosa; [17],0.8
same,"AK-based Prestwick Library Screening Results, E. cloacae (increase in extracellular AK activity)",E. cloacae; [17],1.1
same,"AK-based Prestwick Library Screening Results, E. coli (increase in extracellular AK activity)",E. coli; [17],0.9
COc1cc2nc(N3CCN(C(=O)C4COc5ccccc5O4)CC3)nc(N)c2cc1OC (centres unmarked) [Doxazosin mesylate],fold induction at 50 µM,E. faecium; [18],1.1
same,fold induction at 50 µM,[1]; [19],1.2
same,fold induction at 50 µM,K. pneumoniae; [20],0.9
same,fold induction at 50 µM,[2]; [21],1.3
same,fold induction at 50 µM,P. aeruginosa; [22],1.1
same,fold induction at 50 µM,E. cloacae; [23],1.5
same,fold induction at 50 µM,E. coli; [24],1.4
C[C@]12CC[C@H](O)C[C@@H]1CC[C@@H]1[C@@H]2CC[C@]2(C)C(=O)CC[C@@H]12 [Epiandrosterone],fold induction at 50 µM,"E. faecium; read-out: AK-based Prestwick Library Screening Results, E. faecium (increase in extracellular AK activity)",1
same,fold induction at 50 µM,"[1]; read-out: AK-based Prestwick Library Screening Results, S. aureus (increase in extracellular AK activity)",0.6
same,fold induction at 50 µM,"K. pneumoniae; read-out: AK-based Prestwick Library Screening Results, K. pneumoniae (increase in extracellular AK activity)",0.7
same,fold induction at 50 µM,"[2]; read-out: AK-based Prestwick Library Screening Results, A. baumannii (increase in extracellular AK activity)",0.8
same,fold induction at 50 µM,"P. aeruginosa; read-out: AK-based Prestwick Library Screening Results, P. aeruginosa (increase in extracellular AK activity)",0.8
same,fold induction at 50 µM,"E. cloacae; read-out: AK-based Prestwick Library Screening Results, E. cloacae (increase in extracellular AK activity)",1.1
same,fold induction at 50 µM,"E. coli; read-out: AK-based Prestwick Library Screening Results, E. coli (increase in extracellular AK activity)",0.9
Cc1ccc(N(CC2=NCCN2)c2cccc(O)c2)cc1 [Phentolamine hydrochloride],fold induction at 50 µM,E. faecium; [25],1
same,fold induction at 50 µM,[1]; [26],1.1
same,fold induction at 50 µM,K. pneumoniae; [27],1.1
same,fold induction at 50 µM,[2]; [28],1.4
same,fold induction at 50 µM,P. aeruginosa; [29],1.2
same,fold induction at 50 µM,E. cloacae; [30],1.2
same,fold induction at 50 µM,E. coli; [31],1.4
Cc1ncc([N+](=O)[O-])n1CCO [Metronidazole],fold induction at 50 µM,E. faecium; [10],0.8
same,fold induction at 50 µM,[1]; [11],0.4
same,fold induction at 50 µM,K. pneumoniae; [12],0.4
same,fold induction at 50 µM,[2]; [13],0.4
same,fold induction at 50 µM,P. aeruginosa; [14],0.3
same,fold induction at 50 µM,E. cloacae; [15],0.3
same,fold induction at 50 µM,E. coli; [16],0.4
CCN(CC)CCNC(=O)c1cc(S(C)(=O)=O)ccc1OC [Tiapride hydrochloride],fold induction at 50 µM,E. faecium; [25],1.1
same,fold induction at 50 µM,[1]; [26],1
same,fold induction at 50 µM,K. pneumoniae; [27],0.9
same,fold induction at 50 µM,[2]; [28],1.1
same,fold induction at 50 µM,P. aeruginosa; [29],1.2
same,fold induction at 50 µM,E. cloacae; [30],1.5
same,fold induction at 50 µM,E. coli; [31],1.4
CC(C)n1c(/C=C/C(O)CC(O)CC(=O)O)c(-c2ccc(F)cc2)c2ccccc21 (centres unmarked) [Fluvastatin sodium salt],fold induction at 50 µM,E. faecium; [18],1
same,fold induction at 50 µM,[1]; [19],1
same,fold induction at 50 µM,K. pneumoniae; [20],0.9
same,fold induction at 50 µM,[2]; [21],0.9
same,fold induction at 50 µM,P. aeruginosa; [22],1
same,fold induction at 50 µM,E. cloacae; [23],1.7
same,fold induction at 50 µM,E. coli; [24],1.3
